Source: the NIST ThermoML archive (doi:10.1016/j.fluid.2019.112274)
Numbers after ± are expanded uncertainties.

Conditions: Liquid; for thermal diffusivity: Dynamic light scattering; for speed of sound: Brillouin light scattering

CCCCCCCCCC(=O)OCC [ethyl decanoate]
Conditions	speed of sound [m/s]	thermal diffusivity [m2/s]
295.34 K, 5000 kPa	–	8.46e-08 ± 2.6e-09
295.57 K, 10000 kPa	–	8.67e-08 ± 2.6e-09
295.72 K, 7000 kPa	–	8.54e-08 ± 2.6e-09
296.25 K, 3000 kPa	–	8.37e-08 ± 2.5e-09
296.31 K, 100 kPa	–	8.23e-08 ± 2.5e-09
300.71 K, 7000 kPa	1302.7 ± 16	–
300.78 K, 100 kPa	1283.2 ± 15	–
300.78 K, 10000 kPa	1329.5 ± 16	–
300.79 K, 3000 kPa	1290.7 ± 16	–
300.81 K, 5000 kPa	1295.7 ± 16	–
310.13 K, 10000 kPa	–	8.5e-08 ± 2.6e-09
310.16 K, 5000 kPa	–	8.28e-08 ± 2.5e-09
310.19 K, 7000 kPa	–	8.37e-08 ± 2.5e-09
310.26 K, 3000 kPa	–	8.19e-08 ± 2.5e-09
310.29 K, 100 kPa	–	8.05e-08 ± 2.4e-09
310.58 K, 10000 kPa	1301.3 ± 16	–
310.85 K, 100 kPa	1248.4 ± 15	–
310.85 K, 5000 kPa	1265 ± 15	–
310.93 K, 7000 kPa	1271.5 ± 15	–
311.01 K, 3000 kPa	1258.4 ± 15	–
320.9 K, 100 kPa	1213.6 ± 15	–
320.91 K, 5000 kPa	1233.3 ± 15	–
320.94 K, 3000 kPa	1226.4 ± 15	–
320.98 K, 7000 kPa	1241.3 ± 15	–
321 K, 10000 kPa	1269.6 ± 15	–
324.97 K, 5000 kPa	–	8.07e-08 ± 2.5e-09
325.08 K, 7000 kPa	–	8.16e-08 ± 2.5e-09
325.11 K, 3000 kPa	–	7.98e-08 ± 2.4e-09
325.16 K, 10000 kPa	–	8.29e-08 ± 2.5e-09
325.23 K, 100 kPa	–	7.85e-08 ± 2.4e-09
330.76 K, 3000 kPa	1192.9 ± 14	–
330.77 K, 7000 kPa	1210.4 ± 15	–
330.79 K, 10000 kPa	1239.7 ± 15	–
330.81 K, 100 kPa	1178.4 ± 14	–
330.87 K, 5000 kPa	1199.5 ± 14	–
339.12 K, 7000 kPa	1183 ± 14	–
339.89 K, 10000 kPa	–	8.08e-08 ± 2.5e-09
340.05 K, 7000 kPa	–	7.95e-08 ± 2.4e-09
340.11 K, 5000 kPa	–	7.86e-08 ± 2.4e-09
340.16 K, 3000 kPa	–	7.78e-08 ± 2.4e-09
340.18 K, 100 kPa	–	7.64e-08 ± 2.3e-09
340.24 K, 100 kPa	1144.5 ± 14	–
340.56 K, 10000 kPa	1209.4 ± 14	–
340.76 K, 5000 kPa	1166.4 ± 14	–
340.79 K, 3000 kPa	1157.6 ± 14	–
350.12 K, 10000 kPa	1179.1 ± 14	–
350.77 K, 3000 kPa	1124.1 ± 14	–
350.89 K, 7000 kPa	1145.9 ± 14	–
350.97 K, 5000 kPa	1133.3 ± 14	–
350.99 K, 100 kPa	1106.3 ± 13	–
355.14 K, 5000 kPa	–	7.65e-08 ± 2.3e-09
355.19 K, 100 kPa	–	7.44e-08 ± 2.3e-09
355.22 K, 7000 kPa	–	7.74e-08 ± 2.4e-09
355.25 K, 10000 kPa	–	7.86e-08 ± 2.4e-09
355.26 K, 3000 kPa	–	7.57e-08 ± 2.3e-09
360.27 K, 10000 kPa	1145.7 ± 14	–
360.32 K, 100 kPa	1073.2 ± 13	–
360.51 K, 5000 kPa	1102.5 ± 13	–
360.55 K, 7000 kPa	1115.4 ± 13	–
360.75 K, 3000 kPa	1090.9 ± 13	–
369.47 K, 10000 kPa	1115.6 ± 13	–
369.75 K, 3000 kPa	–	7.34e-08 ± 2.3e-09
369.77 K, 7000 kPa	–	7.5e-08 ± 2.3e-09
369.78 K, 5000 kPa	–	7.42e-08 ± 2.3e-09
369.78 K, 10000 kPa	–	7.63e-08 ± 2.3e-09
369.85 K, 100 kPa	–	7.21e-08 ± 2.2e-09
371.22 K, 100 kPa	1035.6 ± 12	–
371.22 K, 7000 kPa	1081.7 ± 13	–
371.31 K, 5000 kPa	1068.1 ± 13	–
371.46 K, 3000 kPa	1054.6 ± 13	–
379.56 K, 7000 kPa	1055.4 ± 13	–
379.62 K, 5000 kPa	1040.4 ± 12	–
379.78 K, 100 kPa	1005.8 ± 12	–
379.78 K, 3000 kPa	1026.4 ± 12	–
383.22 K, 10000 kPa	1069.6 ± 13	–
384.3 K, 3000 kPa	–	7.11e-08 ± 2.2e-09
384.31 K, 100 kPa	–	6.99e-08 ± 2.2e-09
384.31 K, 7000 kPa	–	7.28e-08 ± 2.2e-09
384.32 K, 5000 kPa	–	7.2e-08 ± 2.2e-09
384.32 K, 10000 kPa	–	7.4e-08 ± 2.3e-09
389.06 K, 100 kPa	973.3 ± 12	–
389.19 K, 5000 kPa	1010.9 ± 12	–
389.22 K, 7000 kPa	1025 ± 12	–
389.32 K, 3000 kPa	996.7 ± 12	–
392.15 K, 10000 kPa	1042.5 ± 12	–
399.55 K, 10000 kPa	–	7.23e-08 ± 2.2e-09
399.56 K, 3000 kPa	–	6.95e-08 ± 2.1e-09
399.57 K, 7000 kPa	–	7.11e-08 ± 2.2e-09
399.6 K, 100 kPa	–	6.82e-08 ± 2.1e-09
399.6 K, 5000 kPa	–	7.03e-08 ± 2.2e-09
400.76 K, 100 kPa	933.3 ± 11	–
400.79 K, 3000 kPa	958.4 ± 12	–
400.81 K, 7000 kPa	989.3 ± 12	–
400.9 K, 5000 kPa	973.6 ± 12	–
401.26 K, 10000 kPa	1015 ± 12	–
408.81 K, 3000 kPa	933.4 ± 11	–
409.55 K, 5000 kPa	946.8 ± 11	–
410.3 K, 7000 kPa	960.7 ± 12	–
410.85 K, 100 kPa	900.2 ± 11	–
411.61 K, 10000 kPa	983.4 ± 12	–
414.33 K, 10000 kPa	–	7.01e-08 ± 2.2e-09
414.35 K, 3000 kPa	–	6.73e-08 ± 2.1e-09
414.36 K, 7000 kPa	–	6.89e-08 ± 2.1e-09
414.41 K, 5000 kPa	–	6.81e-08 ± 2.1e-09
414.43 K, 100 kPa	–	6.61e-08 ± 2e-09
419.6 K, 100 kPa	871.4 ± 10	–
419.67 K, 3000 kPa	899.1 ± 11	–
419.68 K, 5000 kPa	915 ± 11	–
